According to ChEMBL document CHEMBL3124777, “Synthesis and biological evaluation of thiazoline derivatives as new antimicrobial and anticancer agents” (Eur J Med Chem, 2014):
≈ marks a conversion by molar mass, not a printed value.

Key:
C6 [1] = test: Cytotoxicity against rat C6 cells after 24 hrs by MTT assay; assay type: functional, cell-based; conditions: C6, 24 h
NIH3T3 = test: Cytotoxicity against mouse NIH/3T3 cells after 24 hrs by MTT assay; assay type: cell-based; conditions: NIH3T3, 24 h
C6 [2] = test: Cytotoxicity against rat C6 cells assessed as cell viability at 200 ug/ml after 24 hrs by MTT assay relative to control; assay type: functional; conditions: C6, 24 h, read-out: Activity
C6 [3] = test: Cytotoxicity against rat C6 cells assessed as cell viability at 100 ug/ml after 24 hrs by MTT assay relative to control; assay type: functional; conditions: C6, 24 h, read-out: Activity
C6 [4] = test: Cytotoxicity against rat C6 cells assessed as cell viability at 50 ug/ml after 24 hrs by MTT assay relative to control; assay type: functional; conditions: C6, 24 h, read-out: Activity
C6 [5] = test: Cytotoxicity against rat C6 cells assessed as cell viability at 25 ug/ml after 24 hrs by MTT assay relative to control; assay type: functional; conditions: C6, 24 h, read-out: Activity
C6 [6] = test: Cytotoxicity against rat C6 cells assessed as cell viability at 12 ug/ml after 24 hrs by MTT assay relative to control; assay type: functional; conditions: C6, 24 h, read-out: Activity
C6 [7] = test: Cytotoxicity against rat C6 cells assessed as cell viability at 6 ug/ml after 24 hrs by MTT assay relative to control; assay type: functional; conditions: C6, 24 h, read-out: Activity
Candida albicans = test: Antimicrobial activity against Candida albicans ATCC 22019 after 18 to 24 hrs by microbroth dilution method; assay type: functional
Fusarium culmorum = test: Antimicrobial activity against wild type Fusarium culmorum after 48 to 72 hrs by microbroth dilution method; assay type: functional
Fusarium verticillioides = test: Antimicrobial activity against Fusarium moniliforme NRRL 1866 after 48 to 72 hrs by microbroth dilution method; assay type: functional
Fusarium solani = test: Antimicrobial activity against Fusarium solani NRRL 13414 after 48 to 72 hrs by microbroth dilution method; assay type: functional
Aspergillus ochraceus = test: Antimicrobial activity against Aspergillus ochraceus NRRL 3174 after 48 to 72 hrs by microbroth dilution method; assay type: functional
Trichoderma harzianum = test: Antimicrobial activity against Trichoderma harzianum NRRL 20565 after 48 to 72 hrs by microbroth dilution method; assay type: functional
Penicillium chrysogenum = test: Antimicrobial activity against Penicillium chrysogenum NRRL 1951 after 48 to 72 hrs by microbroth dilution method; assay type: functional
Aspergillus parasiticus = test: Antimicrobial activity against Aspergillus parasiticus NRRL 465 after 48 to 72 hrs by microbroth dilution method; assay type: functional
Bacillus subtilis = test: Antimicrobial activity against Bacillus subtilis NRS-744 after 18 to 24 hrs by microbroth dilution method; assay type: functional
Micrococcus luteus = test: Antimicrobial activity against Micrococcus luteus NRLL B-4375 after 18 to 24 hrs by microbroth dilution method; assay type: functional
Pseudomonas aeruginosa = test: Antimicrobial activity against Pseudomonas aeruginosa […] after 18 to 24 hrs by microbroth dilution method; assay type: functional
Escherichia coli = test: Antimicrobial activity against Escherichia coli ATCC 25922 after 18 to 24 hrs by microbroth dilution method; assay type: functional
Listeria monocytogenes = test: Antimicrobial activity against Listeria monocytogenes ATCC 7644 after 18 to 24 hrs by microbroth dilution method; assay type: functional
Staphylococcus aureus = test: Antimicrobial activity against Staphylococcus aureus NRRL B-767 after 18 to 24 hrs by microbroth dilution method; assay type: functional

Structure (SMILES) | IC50 (C6 [1]) [µg/mL] | IC50 (NIH3T3) [µg/mL] | viability at 200 µg/mL (C6 [2]) [%] | viability at 100 µg/mL (C6 [3]) [%] | viability at 50 µg/mL (C6 [4]) [%] | viability at 25 µg/mL (C6 [5]) [%] | viability at 12 µg/mL (C6 [6]) [%] | viability at 6 µg/mL (C6 [7]) [%] | MIC (Candida albicans) [µg/mL] | MIC (Fusarium culmorum) [µg/mL] | MIC (Fusarium verticillioides) [µg/mL] | MIC (Fusarium solani) [µg/mL] | MIC (Aspergillus ochraceus) [µg/mL] | MIC (Trichoderma harzianum) [µg/mL] | MIC (Penicillium chrysogenum) [µg/mL] | MIC (Aspergillus parasiticus) [µg/mL] | MIC (Bacillus subtilis) [µg/mL] | MIC (Micrococcus luteus) [µg/mL] | MIC (Pseudomonas aeruginosa) [µg/mL] | MIC (Escherichia coli) [µg/mL] | further results
Cn1cnnc1SCC(=O)N/N=c1/scc(-c2ccccc2)n1-c1ccccc1 | 68.3 (≈ 162 µM) | 217 (≈ 513 µM) | 35.5 | 38.6 | 62.4 | 77.3 | 79.6 | 90 | 250 (≈ 592 µM) | 250 (≈ 592 µM) | 250 (≈ 592 µM) | 250 (≈ 592 µM) | 250 (≈ 592 µM) | 125 (≈ 296 µM) | 250 (≈ 592 µM) | 250 (≈ 592 µM) | 250 (≈ 592 µM) | 250 (≈ 592 µM) | 250 (≈ 592 µM) | 250 (≈ 592 µM) | MIC (Listeria monocytogenes): 250 µg/mL (≈ 592 µM); MIC (Staphylococcus aureus): 250 µg/mL (≈ 592 µM)
Cc1ccc(-c2cs/c(=N/NC(=O)CSc3nnnn3C)n2-c2ccccc2)cc1 | 36.3 (≈ 83 µM) | 243 (≈ 556 µM) | 39.7 | 39.7 | 44.3 | 60.7 | 68.8 | 88 | 250 (≈ 571 µM) | 125 (≈ 286 µM) | 250 (≈ 571 µM) | 250 (≈ 571 µM) | 250 (≈ 571 µM) | 125 (≈ 286 µM) | 250 (≈ 571 µM) | 250 (≈ 571 µM) | 500 (≈ 1140 µM) | 250 (≈ 571 µM) | 250 (≈ 571 µM) | 250 (≈ 571 µM) | MIC (Listeria monocytogenes): 250 µg/mL (≈ 571 µM); MIC (Staphylococcus aureus): 250 µg/mL (≈ 571 µM)
Cc1ccc(-c2cs/c(=N/NC(=O)CSc3ncccn3)n2-c2ccccc2)cc1 | 85 (≈ 196 µM) | > 500 | 43.7 | 45.9 | 64.4 | 82.7 | 83 | 93.2 | 250 (≈ 577 µM) | 250 (≈ 577 µM) | 250 (≈ 577 µM) | 250 (≈ 577 µM) | 250 (≈ 577 µM) | 250 (≈ 577 µM) | 250 (≈ 577 µM) | 250 (≈ 577 µM) | 500 (≈ 1150 µM) | 250 (≈ 577 µM) | 250 (≈ 577 µM) | 250 (≈ 577 µM) | MIC (Listeria monocytogenes): 250 µg/mL (≈ 577 µM); MIC (Staphylococcus aureus): 250 µg/mL (≈ 577 µM)
COc1ccc(-c2cs/c(=N/NC(=O)CSc3ncccn3)n2-c2ccccc2)cc1 | 102 (≈ 226 µM) | 450 (≈ 1000 µM) | 37.6 | 51.5 | 66.5 | 74 | 78.4 | 89.6 | 250 (≈ 556 µM) | 250 (≈ 556 µM) | 250 (≈ 556 µM) | 250 (≈ 556 µM) | 250 (≈ 556 µM) | 250 (≈ 556 µM) | 250 (≈ 556 µM) | 250 (≈ 556 µM) | 250 (≈ 556 µM) | 250 (≈ 556 µM) | 250 (≈ 556 µM) | 250 (≈ 556 µM) | MIC (Listeria monocytogenes): 250 µg/mL (≈ 556 µM); MIC (Staphylococcus aureus): 250 µg/mL (≈ 556 µM)
Cc1nnc(SCC(=O)N/N=c2/scc(-c3ccccc3)n2-c2ccccc2)s1 | > 200 | 197 (≈ 447 µM) | 59.2 | 61.8 | 63.9 | 65.9 | 72.5 | 72.4 | 250 (≈ 569 µM) | 250 (≈ 569 µM) | 250 (≈ 569 µM) | 250 (≈ 569 µM) | 250 (≈ 569 µM) | 125 (≈ 284 µM) | 250 (≈ 569 µM) | 250 (≈ 569 µM) | 500 (≈ 1140 µM) | 250 (≈ 569 µM) | 250 (≈ 569 µM) | 250 (≈ 569 µM) | MIC (Listeria monocytogenes): 250 µg/mL (≈ 569 µM); MIC (Staphylococcus aureus): 500 µg/mL (≈ 1140 µM)
Cn1cnnc1SCC(=O)N/N=c1/scc(-c2ccc(C#N)cc2)n1-c1ccccc1 | > 200 | 153 (≈ 343 µM) | 52.6 | 55.2 | 58.8 | 58.8 | 62.6 | 70.2 | 250 (≈ 559 µM) | 250 (≈ 559 µM) | 250 (≈ 559 µM) | 250 (≈ 559 µM) | 250 (≈ 559 µM) | 125 (≈ 279 µM) | 250 (≈ 559 µM) | 250 (≈ 559 µM) | 250 (≈ 559 µM) | 250 (≈ 559 µM) | 250 (≈ 559 µM) | 250 (≈ 559 µM) | MIC (Listeria monocytogenes): 250 µg/mL (≈ 559 µM); MIC (Staphylococcus aureus): 250 µg/mL (≈ 559 µM)
